Laboratory results: PubChem BioAssay AID2060898 (Molecular Pharmacology Branch, DTP, NCI, 2025)

Test system: 616215-338-R-J1-PDC complex spheroid viability
Assay: Anticancer human tumor 616215-338-R-J1-PDC patient-derived colon adenocarcinoma cell line growth inhibition [RAS]
Conditions: for IC50: curve of first compound; for viability, T/C: stronger effect = lower value; active = viability on the fitted dose curve at most 10% of control; inactive = the rest
Outline: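 Multi-cell-type spheroids: tumor cells plus HUVEC endothelial cells and mesenchymal stem cells. RAS-pathway inhibitors were combined with targeted agents, each dosed in half-log steps down from clinical Cmax, or from 10 microM when Cmax was unknown.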

[1] = second compound 0.000949 µM, first compound 0.0316 µM
[2] = second compound 0.000949 µM, first compound 0.1 µM
[3] = second compound 0.000949 µM, first compound 0.316 µM
[4] = second compound 0.000949 µM, first compound 1 µM
[5] = second compound 0.000949 µM, first compound 3.16 µM
[6] = second compound 0.000949 µM, first compound 10 µM
[7] = second compound 0.003 µM, first compound 0.0316 µM
[8] = second compound 0.003 µM, first compound 0.1 µM
[9] = second compound 0.003 µM, first compound 0.316 µM
[10] = second compound 0.003 µM, first compound 1 µM
[11] = second compound 0.003 µM, first compound 3.16 µM
[12] = second compound 0.003 µM, first compound 10 µM
[13] = second compound 0.00949 µM, first compound 0.0316 µM
[14] = second compound 0.00949 µM, first compound 0.1 µM
[15] = second compound 0.00949 µM, first compound 0.316 µM
[16] = second compound 0.00949 µM, first compound 1 µM
[17] = second compound 0.00949 µM, first compound 3.16 µM
[18] = second compound 0.00949 µM, first compound 10 µM
[19] = second compound 0.03 µM, first compound 0.0316 µM
[20] = second compound 0.03 µM, first compound 0.1 µM
[21] = second compound 0.03 µM, first compound 0.316 µM
[22] = second compound 0.03 µM, first compound 1 µM
[23] = second compound 0.03 µM, first compound 3.16 µM
[24] = second compound 0.03 µM, first compound 10 µM
[25] = second compound 0.0949 µM, first compound 0.0316 µM
[26] = second compound 0.0949 µM, first compound 0.1 µM
[27] = second compound 0.0949 µM, first compound 0.316 µM
[28] = second compound 0.0949 µM, first compound 1 µM
[29] = second compound 0.0949 µM, first compound 3.16 µM
[30] = second compound 0.0949 µM, first compound 10 µM
[31] = second compound 0.3 µM, first compound 0.0316 µM
[32] = second compound 0.3 µM, first compound 0.1 µM
[33] = second compound 0.3 µM, first compound 0.316 µM
[34] = second compound 0.3 µM, first compound 1 µM
[35] = second compound 0.3 µM, first compound 3.16 µM
[36] = second compound 0.3 µM, first compound 10 µM
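Also: spheroids exposed to agents for seven days before viability readout.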
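For viability, T/C in this document: 100% = DMSO vehicle control viability.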

Cc1nc(N2CCC3(CC2)COC(C)C3N)c(CO)nc1Sc1ccnc(N)c1Cl (stereo unspecified) + CCn1c(-c2cc(N3CCN(C)CC3)cnc2C(C)OC)c2c3cc(ccc31)-c1csc(n1)CC(NC(=O)C1CC1C)C(=O)N1CCCC(N1)C(=O)OCC(C)(C)C2
inactive: viability, T/C [1] 123% | viability, T/C [2] 106% | viability, T/C [3] 85.6% | viability, T/C [4] 75.6% | viability, T/C [5] 63.1% | viability, T/C [6] 61.9% | viability, T/C [7] 118% | viability, T/C [8] 92.5% | viability, T/C [9] 66.4% | viability, T/C [10] 49.7% | viability, T/C [11] 54.9% | viability, T/C [12] 39.1% | viability, T/C [13] 71% | viability, T/C [14] 55.4% | viability, T/C [15] 46.9% | viability, T/C [16] 42.6% | viability, T/C [17] 44.2% | viability, T/C [18] 38% | viability, T/C [19] 43.8% | viability, T/C [20] 47.5% | viability, T/C [21] 46.9% | viability, T/C [22] 39.9% | viability, T/C [23] 45.5% | viability, T/C [24] 36.6% | viability, T/C [25] 38.9% | viability, T/C [26] 37.5% | viability, T/C [27] 40.6% | viability, T/C [28] 40.3% | viability, T/C [29] 44.2% | viability, T/C [30] 46.6% | viability, T/C [31] 36.7% | viability, T/C [32] 40.9% | viability, T/C [33] 47.3% | viability, T/C [34] 39.1% | viability, T/C [35] 44.7% | viability, T/C [36] 37.1%
1670 nM: IC50 (second compound 0.003 µM)
> 10000 nM: IC50 (second compound 0.000949 µM)
214 nM: IC50 (second compound 0.00949 µM)
< 31.6 nM: IC50 (second compound 0.03 µM) | IC50 (second compound 0.0949 µM) | IC50 (second compound 0.3 µM)

NC1c2ccccc2OC12CCN(c1cnc3c(N4CCCc5ncccc54)n[nH]c3n1)CC2 (stereo unspecified) + CCn1c(-c2cc(N3CCN(C)CC3)cnc2C(C)OC)c2c3cc(ccc31)-c1csc(n1)CC(NC(=O)C1CC1C)C(=O)N1CCCC(N1)C(=O)OCC(C)(C)C2
228 nM: IC50 (second compound 0.003 µM)
< 31.6 nM: IC50 (second compound 0.00949 µM) | IC50 (second compound 0.03 µM) | IC50 (second compound 0.0949 µM) | IC50 (second compound 0.3 µM)
2240 nM: IC50 (second compound 0.000949 µM)
inactive: viability, T/C [1] 81.9% | viability, T/C [2] 69.7% | viability, T/C [3] 60% | viability, T/C [4] 55.5% | viability, T/C [5] 51.2% | viability, T/C [6] 40.2% | viability, T/C [7] 73.5% | viability, T/C [8] 60.6% | viability, T/C [9] 44.6% | viability, T/C [10] 41.9% | viability, T/C [11] 35.2% | viability, T/C [12] 37.1% | viability, T/C [13] 49.4% | viability, T/C [14] 48.4% | viability, T/C [15] 42.9% | viability, T/C [16] 42.2% | viability, T/C [17] 36.4% | viability, T/C [18] 31.1% | viability, T/C [19] 38.7% | viability, T/C [20] 34.9% | viability, T/C [21] 33.9% | viability, T/C [22] 40.1% | viability, T/C [23] 35.2% | viability, T/C [24] 30.5% | viability, T/C [25] 35.9% | viability, T/C [26] 42.6% | viability, T/C [27] 47.9% | viability, T/C [28] 42.2% | viability, T/C [29] 44.2% | viability, T/C [30] 34.6% | viability, T/C [31] 51.7% | viability, T/C [32] 40.5% | viability, T/C [33] 44.6% | viability, T/C [34] 41.1% | viability, T/C [35] 45.3% | viability, T/C [36] 32.4%

Nc1ccn(C2OC(CO)C(O)C2(F)F)c(=O)n1 (stereo unspecified) + CCn1c(-c2cc(N3CCN(C)CC3)cnc2C(C)OC)c2c3cc(ccc31)-c1csc(n1)CC(NC(=O)C1CC1C)C(=O)N1CCCC(N1)C(=O)OCC(C)(C)C2
11.5 nM: IC50 (second compound 0.000949 µM)
7.36 nM: IC50 (second compound 0.003 µM)
inactive: viability, T/C (second compound 0.000949 µM, first compound 0.00316 µM) 96.2% | viability, T/C (second compound 0.000949 µM, first compound 0.01 µM) 53.7% | viability, T/C [1] 23.7% | viability, T/C [2] 13.8% | viability, T/C [3] 13.5% | viability, T/C [4] 15.7% | viability, T/C (second compound 0.003 µM, first compound 0.00316 µM) 80.8% | viability, T/C (second compound 0.003 µM, first compound 0.01 µM) 38.6% | viability, T/C [7] 20.2% | viability, T/C [8] 10.3% | viability, T/C [9] 11.4% | viability, T/C [10] 11% | viability, T/C (second compound 0.00949 µM, first compound 0.00316 µM) 52.9% | viability, T/C (second compound 0.00949 µM, first compound 0.01 µM) 28.8% | viability, T/C [13] 19.2% | viability, T/C [14] 9.65% | viability, T/C [15] 12.4% | viability, T/C [16] 10.4% | viability, T/C (second compound 0.03 µM, first compound 0.00316 µM) 33.8% | viability, T/C (second compound 0.03 µM, first compound 0.01 µM) 25.8% | viability, T/C [19] 18.5% | viability, T/C [20] 9.6% | viability, T/C (second compound 0.0949 µM, first compound 0.00316 µM) 31.6% | viability, T/C (second compound 0.0949 µM, first compound 0.01 µM) 22.4% | viability, T/C [25] 17.2% | viability, T/C [26] 7.8% | viability, T/C (second compound 0.3 µM, first compound 0.00316 µM) 37.6% | viability, T/C (second compound 0.3 µM, first compound 0.01 µM) 25.7% | viability, T/C [31] 21.4% | viability, T/C [32] 12.1%
< 3.16 nM: IC50 (second compound 0.03 µM) | IC50 (second compound 0.0949 µM) | IC50 (second compound 0.3 µM)
3.62 nM: IC50 (second compound 0.00949 µM)
active: viability, T/C [21] 8.72% | viability, T/C [22] 9.03% | viability, T/C [27] 9.83% | viability, T/C [28] 8.16% | viability, T/C [33] 9.28% | viability, T/C [34] 8.49%
